The test system of assay [1] is blood glucose. Briefly: Enhancement of insulin sensitivity in rats. Type of assay: in vivo. The conditions noted are these: 10 mg/kg/day p.o. once daily for 5 days; fasted 18 hours; insulin 0.1 unit/kg i.p.; n=5; *P < 0.01. As to the method:
Blood samples were collected from the tail vein 0 and 1 hour after the injection of insulin for the determination of blood glucose (Table 1).

Assay [2] has as its target T1, aldose reductase extracted from rat lens (Rattus norvegicus, UniProt P07943).
T1 construct: aldose reductase extracted from rat lens; from tissue; host or cells: rat lens
Briefly: Inhibition of aldose reductase in vitro. Type of assay: biochemical. To be noted: method of Hyman and Kinoshita. The text has this: Inhibition of aldose reductase in vitro
According to the method of Hyman and Kinoshita (J. Biol. Chem., 240, 877, 1965), inhibitory activity of the compound of Example 23 on aldose reductase extracted from rat lens was investigated. As a result, the following IC50 value was obtained (Table 3).

The test system of assay [3] is sorbitol content in retina. Put plainly: Inhibition on sorbitol accumulation in retina of diabetic rats. The format is in vivo. To be noted: Rattus norvegicus, po, 336 h, streptozotocin rats, 4, 16 or 64 mg/kg/day p.o. once daily 2 weeks. As to the method: (§1) Inhibition on sorbitol accumulation in tissues of diabetic rats
(§2) After diabetic rats were prepared by injecting streptozotocin, they were orally administered with the compound of Example 23 once daily 2 weeks at 4, 16 or 64 mg/kg/day, respectively. The sorbitol content in nerve and retina was determined to calculate ED50 value (Table 4).

In assay [4] the test system is blood glucose. Briefly: Improvement of glucose tolerance in genetically obese mice (OGTT). Type of assay: in vivo, Genetically obese mice (CS57BL ob/ob mice). The conditions noted are these: fasted 18 hours, 2 g/kg glucose orally, blood at 0, 30, 60, 120 min. As to the method:
Improvement of glucose tolerance in genetically obese mice
Genetically obese mice (CS57BL ob/ob mice) were orally administered with the compound of Example 23 once daily for 5 days at 10, 30 or 100 mg/kg/day, respectively. They were fasted for 18 hours and then 2 g/kg of glucose was orally administered. Blood samples were collected from the tail vein 0, 30, 60 and 120 minutes after the administration of glucose for the determination of blood glucose (Table 2).

In assay [5] the test system is sorbitol content in nerve. Put plainly: Inhibition on sorbitol accumulation in nerve of diabetic rats. The format is in vivo. The conditions noted are these: Rattus norvegicus, po, 336 h, streptozotocin rats, 4, 16 or 64 mg/kg/day p.o. once daily 2 weeks. As to the method:
as §1, §2

Data on one compound can be found in patent publication US5342850A, “Thiazolidine-2,4-dione derivatives, their salts and their preparation processes” (Kyorin Pharmaceutical Co., Ltd., priority 1991, dated 1994).

SMILES strings stand for the structures.

In general, IC50 refers to the concentration that gives 50% inhibition. Broadly, the ED50 is the dose at which the effect has come halfway, by size or by number of responders. Regarding `O=C1NC(=O)C(c2ccc(NC(=O)c3ccc(Cl)cc3Cl)cc2)S1` (stereo not shown) [Example 23], the “0 hour value - 1 hour value (blood glucose)” value in the assay on blood glucose [1] is given as 19.4 ± 1.5 mg %. The same compound displayed an IC50 in assay [2] of 90 nM. In addition, the results for the 50% effective dose (ED50) in assay [3] and in assay [5] were 26.5 mg/kg and 14.5 mg/kg, respectively. Besides, the “OGTT (% of control)” value was 93.5 % of control with blood glucose [4] (10 mg/kg/day p.o. once daily for 5 days), 89.2 % of control in the assay on blood glucose [4] (30 mg/kg/day p.o. once daily for 5 days) and 74.1 % of control with blood glucose [4] (100 mg/kg/day p.o. once daily for 5 days).
